Measurements as given in patent publication US8796323B2, “Defensin-like molecules as novel antimicrobial agents” (University of Maryland, Baltimore, priority 2010, dated 2014).

Assay: Surface Plasmon Resonance binding of HNP1 peptides and Lipid II
Settings: ratio of Kd values
Experimental: Short-chain water-soluble Lipid II containing a lipid tail of three isoprene units was generated and purified essentially as described in Breukink, E., et al., 2003, “Lipid II is an intrinsic component of the pore induced by nisin in bacterial membranes,” J Biol Chem 278:19898-19903.
Typically, M. flavus vesicles (120 μmol lipid-Pi) were incubated together with 500 μmol UDP-GlcNAc, 500 μmol UDP-MurNAC-pentapeptide and 400 μmol farnesyl phosphate in 100 mM Tris-HCl pH 8.0, 5 mM MgCl2. The incubation lasted two hours at room temperature for 3-P. The synthesis of 3-Lipid II was followed using RP-8 reversed phase TLC (Merck) developed in 75% methanol. […]
Surface Plasmon Resonance binding experiments were carried out on a BIAcore T100 system (BIAcore Inc., Piscataway, N.Y.) at 25° C. […] Association and dissociation were assessed for 300 and 600 second, respectively. […] Binding isotherms were analyzed with manufacturer-supplied software for BIAcore T100 and/or GraphPad Prism 4.0.
The inventors used a Surface Plasmon Resonance (SPR) approach to determine the binding of HNP1 to Lipid II directly. Initial binding of L-HNP1, D-HNP1 and linear HNP1 to soluble Lipid II immobilized on the chip surface was determined. […]

## HNP1: α-defensin Human Neutrophil Peptide 1, chemically synthesized and folded
  affinity for Lipid II, L-HNP1 relative to D-HNP1: approximately five times higher affinity than the D-peptide
